The text below walks through data of patent US20210353784A1, “DETECTING AND TREATING CANCERS USING CELL PENETRANT MTP53-OLIGOMERIZATION-DOMAIN PEPTIDE” (priority 2020, published 2021).

Ends that are not written are not given here.

The assay has as its system MDA-MB-468 and MCF7 cells. Briefly: Live cell imaging staining with Cy5 conjugated first and second-generation TAT-mtp53ODP. In kind it is cell-based, Human. Conditions: 500 nM, 4 h incubation. As to the method: FIG. 7 quantifies the results of live cell imaging staining of MDA-MB-468 and MCF7 cells with 4 h incubation of 500 nM Cy5 conjugated first (TAT-mtp53ODP-35mer, SEQ ID NO: 3) and second-generation (TAT-mtp53ODP-27mer (SEQ ID NO: 7) and TAT-mtp53ODP-37mer (SEQ ID NO: 8)) after 4 h incubation. Cells were imaged by confocal microscopy. Quantification of Cy5 conjugated TAT-mtp53ODP uptake in MDA-MB-468 cells and MCF7 cells was conducted by Nikon Element analysis. […] Three independent experiments with biological replicate were performed. Statistical analyses were conducted in Graphpad Prism 9. Results are expressed as mean+SEM. Statistical significance for hypothesis testing was performed by Student's t-test. The following format was used to assign significance based on P-value: *p-value ≤0.05, ** p-value […] p-value ≤0.001.
Live cell imaging staining was also performed on second-generation peptides based on Cy5-conjugated SEQ ID NO: 7 and SEQ ID NO: 8. FIG. 7 depicts the results of live cell imaging staining of MDA-MB-468 and MCF7 cells with 4 h incubation of 500 nM Cy5 conjugated first (TAT-mtp53ODP-35mer, SEQ ID NO: 3) and second-generation (TAT-mtp53ODP-27mer (SEQ ID NO: 7) and Cy5-conjugated TAT-mtp53ODP-37mer (SEQ ID NO: 8)) after 4 h incubation. Cells were imaged by confocal microscopy. A scrambled peptide was included as a control. […]

As for “GRKKRRQRRGEYFTLQIRGRERFEMFR (also: Cy5 conjugate) [TAT-mtp53ODP-27mer, Cy5 conjugated second-generation TAT-mtp53ODP peptide]”, the “activity relative to TAT-mtp53ODP-35mer (SEQ ID NO: 3)” value was “reduced activity”.

For “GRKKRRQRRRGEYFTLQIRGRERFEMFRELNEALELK (also: Cy5 conjugate) [TAT-mtp53ODP-37mer, Cy5 conjugated second-generation TAT-mtp53ODP peptide]”, the “activity relative to TAT-mtp53ODP-35mer (SEQ ID NO: 3)” value was “enhanced activity”.
